“Also recorded” adds a separate entry of the source.
Key:
[1] = tested on: DCs from murine bone marrow (CD11c+ monocytes); test: Dendritic cell surface receptor expression (CD40, CD80, CD86, MHC Class II) by flow cytometry after cultivation with additives; format: cell-based, NOD mouse
Description: FIG. 1: Dendritic cell (CD11c+ monocytes) surface receptor expression after cultivation with various additives. Expression as indicated by the MFI of CD11+ monocyte cells stained with fluorescent antibodies towards CD40, CD80, CD86 and MHC Class II. A: comparing cells untreated (iDCs), matured with MPLA (mDCs), and cells treated with GABA, GABA and rhGAD65, and GABA and rhGAD65 matured with MPLA. B: comparing cells untreated (iDCs), matured with MPLA (mDCs), and cells treated with GABA, GABA and alhydrogel adsobed rhGAD65, and GABA and alhydrogel adsorbed rhGAD65 matured with MPLA. C: comparing cells untreated (iDCs), matured with MPLA (mDCs), and cells treated with GABA and rhGAD65 matured with MPLA, GABA and alhydrogel adsorbed rhGAD65 matured with MPLA, and cells treated with Dex and VD3 and matured with MPLA.
FIG. 1 (A, B and C) show the surface expression pattern of CD80, CD86, CD40 and MCH Class II proteins on murine DCs treated according to different protocols.
Mouse bone marrow-derived dendritic cells (BMDCs) were generated from bone marrow cells (femura) of 8-week-old NOD mouse females in complete RPMI 1640 medium (Lonza, Basel Switzerland) in the presence of GM-CSF (20 ng/ml) and IL-4 (4.5 ng/ml, PeproTech) for 6 days. Fresh medium was added on day 3 and comparator tDCs were induced by adding dexamethasone (1 μM) and vitamin D3 (0.5 ng/ml) on day 6, while mDCs were generated without tolerogenic factors, and iDCs were untreated for the entire cultivation period. Similarly for GABA testing, GABA was added on day 6 in at a concentration of 100 μM. Exposure to antigen was achieved by adding GAD65 (either pure GAD65 protein or alum adsorbed GAD65) to the cultivation mixture on day 6 along with tolerizing agents at a concentration of 5 μg/ml. […] Cells were harvested on day 8.
Mouse DCs were characterized by flowcytometry using following mAbs purchased from eBioscience; anti-CD11c-APC (clone N418), anti-CD40-PerCP-eFluor710 (clone 1C10), anti-CD80-FITC (clone 16-10A1), anti-CD86-PE (clone GL1), and anti-MHC II (I-A/I-E) (clone MS/114.15.2). Cells were stained with fluorochrome-conjugated antibodies against surface molecules and data were acquired by LSR II flow cytometers (BD Biosciences) and analyzed using FlowJo software (Tree Star).

[2] = tested on: CD11c+ DCs (IL-12 production); test: Intracellular IL-12 expression of treated dendritic cells by FACS; format: cell-based, NOD mouse; settings: with alhydrogel adsorbed rhGAD65, activated with MPLA, FIG. 2B
Description: FIG. 2: IL-12 production of treated dendritic cells. A: FACS plots showing the intracellular IL-12 expression of CD11c+ monocytes as percent IL-12+ cells of parent population; from left to right, untreated (iDCs), matured by MPLA (mDCs), tolerogenic by Dex and VD3 and tolerogenic by GABA. B: Column diagram of percent of parent numbers of the same groups.
In FIG. 2A, FACS plots of the intracellular expression of IL-12 of untreated CD11c+ DCs (iDCs), proinflammatory matured DCs (mDCs), DCs treated with Dex, VD3 and alhydrogel adsorbed rhGAD65 activated by MPLA, and DCs treated with GABA and alhydrogel adsorbed rhGAD65 activated by MPLA are shown. IL-12 is a proinflammatory cytokine, and low production is indicative of tolerogenic DCs. The IL-12+ cells are shown in the upper left quadrant of the plots.
Tolerogenically treated cells on the other hand generally have very low expression of IL-12. Both cells treated with Dex and VD3 and those treated with GABA, even though they have been activated with MPLA, show very low numbers of IL-12+ cells.
Mouse bone marrow-derived dendritic cells (BMDCs) were generated from bone marrow cells (femura) of 8-week-old NOD mouse females in complete RPMI 1640 medium (Lonza, Basel Switzerland) in the presence of GM-CSF (20 ng/ml) and IL-4 (4.5 ng/ml, PeproTech) for 6 days. […]

[3] = tested on: dendritic cells obtained from mouse bone marrow; settings: compared to LPS or mouse serum albumin treatment
Description: Dendritic cells obtained from mouse bone marrow are used. In order to secure a large amount of the number of the dendritic cells, Inaba's culture method (Inaba et al., J. Exp. Med. 175:1157, 1992), which is a representative method of culturing a dendritic cell, is modified and applied to the dendritic cells. […] A tibia and a femur of a mouse aged 6 to 11 weeks are extracted, and a RPMI1640 medium is added to bone marrow of the tibia and the femur to obtain bone marrow cells therefrom. Then, hypotonic ammonium chloride-potassium (ACK) lysing buffer is used for the lysis of red blood cells. The bone marrow cells are cultured in an RPMI1640 medium containing about 10 to 20 ng/ml recombinant mouse GMCSF, about 5 to 10 ng/ml recombinant mouse IL4, 5 to 10% heat inactivated fetal bovine serum, L-glutamine, 25 mM of HEPES, penicillin, and streptomycin under conditions of 5% CO2 and a temperature of 37° C., thereby inducing differentiation into dendritic cells. The medium is replaced every 2 days with a medium containing the recombinant cytokines. After 2 and 4 days of the culture, granulocytes and lymphocytes that are floating on the culture dish are removed. After 6 days of the culture, dendritic cells that are differentiated from precursor cells attached on the bottom of the culture dish and that have characteristic protrusions in suspension are used in the experiments. […]

Question: For `NCCCC(=O)O` [GABA, gamma-aminobutyric acid], which “surface protein expression profile (CD80, CD86, CD40, MHC Class II)” value (from here on “surface protein expression profile”) ([1]; 100 μM GABA alone, FIG. 1A) is on record?
Answer: Its value is “more similar to iDCs and indicative of tDCs”.

Question: What about the “tolerogenic expression pattern compared to Dexamethasone, Vitamin D and MPLA protocol” value ([1]; 100 μM GABA and stabilization with MPLA, FIG. 1C) of the same compound?
Answer: Its value is “comparable or better”.

Question: And the surface molecule expression ([1]; GABA plus alhydrogel adsorbed rhGAD65, then MPLA, FIG. 1B)?
Answer: Its surface molecule expression is “keep a low surface molecule expression”.

Question: What about the “surface protein expression profile” value ([1]; GABA plus antigen GAD65 (rhGAD65), no MPLA) of the same compound?
Answer: The value was “remains the same; also recorded: remains indicative of tDCs”.

Question: And the “surface protein expression profile” value ([1]; GABA plus rhGAD65, then MPLA)?
Answer: The value was “increases slightly but is still much lower than mDCs; also recorded: still remains almost the same”.

Question: What about the “CD80 expression compared to Dex and VD3 treated cells” value ([1]; activated by MPLA, FIG. 1C) of the same compound?
Answer: The value was “even lower”.

Question: And the “numbers of IL-12+ cells (percentage of CD11c+ monocytes that are IL-12 positive)” value [2]?
Answer: The value was “very low”.

Question: What about the “amount of maturation markers on the surface of the dendritic cells (CD40, CD80, CD86, MHC class II)” value [3] of the same compound?
Answer: Its value is “decreased”.

— patent publication US20190359939A1, “NEW USE” (DIAMYD MEDICAL AB, priority 2015, published 2019)
